# Test results reported in a melting point compilation (Tetko et al.; mined from patent text by program, amines drawn as free bases though some values may be those of a salt).
# Residues, ends and D or L forms follow the SMILES beside them. *: point of attachment. Cbz = O=C(OCc1ccccc1)*; tBu = CC(C)(C)*
row,Structure (SMILES),melting point
1,CCCCCCCCCCCCCCCCCCNC(=O)NCCSc1ccc(O)cc1,121 °C
2,Cc1cccc(C)c1CCOCCCCCCNCc1c(CO)ccc(O)c1CO,83 to 86 °C
3,COC(=O)c1cccc2[nH]cc(CC[N+](=O)[O-])c12,103 °C
4,COCCN1CCc2cc(Nc3ncc(Cl)c(NC4(C(=O)NCC#N)CC4)n3)c(OC)cc2CC1,187 to 189 °C
5,C=C(C)C(=O)c1ccc(OC)c(Cl)c1Cl,59 °C
6,O=c1[nH]c2ncc(-c3ccc(O)cc3)nc2n1CC1CCCO1 (centres undefined),256 to 258 °C
7,CCOC(=O)c1[nH]c(CC)c(CC)c1C,71 to 73 °C
8,Cc1c(OCC(F)(F)F)ccnc1CSc1nc2cc(N3CCN(C)CC3)c(F)cc2[nH]1,109 to 110 °C
9,CC(C)(C)C=C[C@H](O)c1ccc(C(F)(F)F)cc1,30 to 32 °C
10,CC(=O)OCC1OC(CCOS(C)(=O)=S)C(OC(C)=O)C(OC(C)=O)C1OC(C)=O (centres undefined),115 to 116 °C
11,COC(=O)CC(C)C1CCC2C3CC=C4CC(OC(C)=O)CC(OC(C)=O)C4(C)C3CCC12C (centres undefined),123 to 124 °C
12,CCOC(=O)c1cc(=O)c2cc(OCC(O)COc3ccc(C#N)cc3)ccc2o1 (centres undefined),150 to 152 °C
13,O=C(C[C@@H](O)C(F)(F)F)N[C@H]1CC[C@H](CCN2CCN(c3nccc4c3CCO4)CC2)CC1,207 °C
14,FC(F)(F)c1nc(-c2ccc(OCCCn3ccnc3)cc2)no1,73 to 73.5 °C
15,CCCCCCCCCCCCCc1c(C(=O)O)sc2c(Br)csc12,88 to 90 °C
16,O=c1[nH]c(=O)n(Cc2ccc(OCCCCCCCCCOc3ccc(Cn4oc(=O)[nH]c4=O)cc3)cc2)o1,149 to 151 °C
17,CCOC(=O)/C=C/c1ccc(/C=C/c2c(OC)cc3c(c2OC)C(C)(C)CCC3(C)C)cc1,205 to 207 °C
18,O=C(O)c1ccc(S(=O)(=O)n2cccc2)s1,191 to 194 °C
19,CCOC(=O)Cc1cccc(N)n1,66 to 68 °C
20,OC1CSC(Oc2cc(F)ccc2-c2ccncc2)C(O)C1O (centres undefined),209 °C

row,Structure (SMILES),melting point
1,"COc1ccc(Br)c2c1CC(NC(C1CC1)C1CC1)CC2 (single isomer, unassigned; (-))",153 to 154 °C
2,Cc1cc(C)c(S(=O)(=O)NCC2CCN(S(=O)(=O)c3c(C)cc(C)cc3C)CC2)c(C)c1,202 to 204 °C
3,C#CCOc1cc(-n2c(Cl)c(C#N)n(CCC)c2=O)c(F)cc1Cl,122 °C
4,CNc1nc(-c2cccc(Br)c2)c2cc(OC)c(OC)cc2n1,246 to 248 °C
5,CSC[C@@H](NC(=O)OCc1ccccc1)[C@@H]1COC(C)(C)O1,70 to 71 °C
6,CCOC(=O)N1CCC(=C2c3ccc(Cl)cc3CCn3ccnc32)CC1,140 °C
7,COc1c(F)c(F)c(C(=O)c2c(F)c(F)c(F)c(F)c2F)c(OC)c1F,49 to 50 °C
8,CO[C@]1(c2cc(F)cc(OCc3ccc4c(ccc(=O)n4C)c3)c2)CCO[C@@H](C)C1,91 to 93 °C
9,CCCCc1nc(Cl)c(C(=O)O)n1Cc1ccc2oc(-c3ccccc3-c3nnn[nH]3)c(C(C)(C)C)c2c1,129 to 132 °C
10,C[Si](C)(C)CCOCn1cc(C#N)c(=O)c2cc(N)c(N)cc21,> 300 °C
11,CCCOc1cc(Cn2[nH]c(N)cc2=O)ccc1Cl,143 °C
12,O=C(Nc1cccc2c1C1CCCCN1C2=O)Nc1ncccc1Br (centres undefined),220 °C
13,O=C(O)c1ccc(NC(O)C(=O)c2ccc(OCC3CCCCC3)cc2)cc1 (centres undefined),188 to 190 °C
14,CN(C)C(=O)CCSC(SCCC(=O)O)c1cccc(C=Cc2ccc3ccc(Cl)cc3n2)c1 (centres undefined),153 to 155 °C
15,CC(=O)CN1CCc2ccc(C(=O)CCC(=O)N3CCC(c4ccc(Cl)cc4)CC3)cc2CC1,119 to 120 °C
16,CN1C(=O)C(=O)NCC1(CCOC1CCCCO1)c1ccc(Cl)c(Cl)c1 (centres undefined),260 °C
17,COc1cc(C=CC(=O)c2cccc(F)c2)cc(OC)c1,89.5 to 90.3 °C
18,N=c1[nH]ccn1Cc1ccc(Cl)nc1,188 °C
19,Nc1ccc(OCCCOc2ccc(N)cc2[N+](=O)[O-])c([N+](=O)[O-])c1,152 to 153 °C
20,CC(C)(C)OC(=O)NC[C@H]1CC[C@H](CO)CC1,88 to 89 °C

row,Structure (SMILES),melting point
1,CC(C)(C)OC(=O)N[C@@H]1C(=O)N(C(=O)C(=O)OC(C)(C)C)[C@@H]1CCC(=O)CO[Si](C)(C)C(C)(C)C,102 to 103 °C
2,CCOC(=O)c1c(N)c2cccnc2n(CC(C)C)c1=O,157 to 159 °C
3,Cc1cc(=O)n2cccc(OCc3ccc(Cl)cc3Br)c2n1,182 to 184 °C
4,Cc1cc(OC(F)F)nc(NC(=O)NS(=O)(=O)c2ccccn2)n1,150 to 151 °C
5,C=Cc1cc2c(Cl)cc(F)c(-n3c(=O)cc(C(F)(F)F)n(C)c3=O)c2o1,108 to 109 °C
6,CCOC(=O)C1=C(C)NC(COC(C)=O)=C(C(=O)OCC)C1c1ccccc1[N+](=O)[O-] (centres undefined),89 to 90 °C
7,CN=CN(C)c1nc(-c2cc(Cl)nc(Cl)c2)cs1,145 °C
8,O=C(O)c1nc2c(=O)[nH]c3cc(C(F)(F)F)ccc3n2c1CNc1ccc2c(c1)OCO2,> 250 °C
9,C=COCCn1c(CN2CCN(C)CC2)nc2ccccc21,65.5 to 67.5 °C
10,NC(=O)C(F)(I)C(F)(F)F (centres undefined),75 to 77 °C
11,CCOP(=S)(NCc1cccc(-c2nc(=O)c3ccccc3s2)n1)OCC,132 to 133 °C
12,CC1(C)CCC(C)(C)c2cc(O)c(N)cc21,225 °C
13,CCN1CCc2ccc(Nc3ncc(Cl)c(Nc4cc(Cl)ccc4C(=O)NC)n3)cc2CC1,223 °C
14,COc1ccc(C2(C#Cc3ccccn3)CCC3(CC2)OCCO3)cc1OC1CCCC1,41 to 42 °C
15,CC(=O)N[C@@H](C)C(=O)NCCc1ccc(O)c(O)c1,200 to 202 °C
16,CC(c1ccc2c(c1)Sc1ccccc1CC2)N(O)C(N)=O (centres undefined),166 to 168 °C
17,CO[C@@H]1[C@@H](OC)[C@H](C)O[C@@H](OC(=O)Nc2ccc(-c3ncn(-c4ccc(OC(F)(F)F)cc4)n3)cc2)[C@@H]1OC,186 to 188 °C
18,C=C(Cc1ccc(C=Cc2ccc(CC(=C)C(=O)OCC)cc2)cc1)C(=O)O,123 to 125 °C

# Now from value to compound:
row,melting point,Structure (SMILES)
1,231 to 233 °C,O=C1CCC(N2C(=O)c3cccc(NCc4cccnc4)c3C2=O)C(=O)N1 (centres undefined)
2,74.6 to 75.6 °C,COC(=O)C(Cc1ccc(OCCc2nc(-c3ccccc3)oc2C)cc1)C(=O)NC(N)=O (centres undefined)
3,112 °C,CS(=O)(=O)c1ccc(-c2sc(NCc3ccccc3)nc2-c2ccc(F)cc2)cc1
4,127 to 128 °C,CCCCc1nc(C(O)C(C)C)c(C#N)n1Cc1ccc(-c2ccccc2-c2nnnn2C(c2ccccc2)(c2ccccc2)c2ccccc2)cc1 (centres undefined)
5,> 250 °C,Nc1cccc(C(=O)Nc2ccc(-c3c[nH]c(=O)cn3)cc2)c1
6,74.5 to 77.5 °C,Cc1ccc(C(=O)N(c2ccccc2)c2ccc(OCCN(C)C)cc2)cc1
7,182 to 184 °C,COc1ccc(CNc2cc3c(Nc4ccc(OCc5ccccn5)c(Cl)c4)ncnc3cn2)cc1
8,71 to 72 °C,CN1CCN(c2ccc(S(=O)(=O)c3ccccc3)c3ccccc23)CC1
9,180 to 181 °C,O=C(Nc1nccs1)c1cccc(-c2ccc3c(c2)C(Oc2ccc(Cl)cc2Cl)CC3)c1 (centres undefined)
10,230 °C,Cc1cn(C(C)C(=O)c2ccc(Cl)cc2)c(=O)n1-c1ccc(N2CCN(c3ccc(O)cc3)CC2)cc1 (centres undefined)
11,106 to 107 °C,COC(=O)C(Cc1ccccc1)NC(=O)C(Cc1ccc(OC(C)(C)C)cc1)NC(=O)OCc1ccccc1 (centres undefined) (Cbz-Tyr(tBu)-Phe-OMe; configuration not given here)
12,137 to 139 °C,COC(=O)C(CO)NS(=O)(=O)c1ccc(Oc2ccncc2)cc1 (centres undefined)
13,157 to 163 °C,OCCCC(=C(c1ccccc1)c1ccc(O)cc1)c1ccccc1
14,160 to 161 °C,CN(C)C(=N)Nc1ccc(F)cc1-c1ccccc1
15,97 to 98 °C,CCc1cc(OCc2ccc(-c3ccccc3-c3nnn(C(c4ccccc4)(c4ccccc4)c4ccccc4)n3)cc2)c2c(n1)CCN(C(C)=O)C2
16,133 to 135 °C,CSC(=S)Nc1ccc(OCc2nc3ccccc3s2)cc1C
17,176 to 179 °C,Nc1snc2nc(-c3ccccc3)sc12
18,80 to 81 °C,CCCCOC(=O)COc1cc(F)ccc1C(=O)NCc1cccc([N+](=O)[O-])c1

row,melting point,Structure (SMILES)
1,117 to 121 °C,Cc1cccc(C(=O)NO)c1N(C)S(=O)(=O)c1ccc(OCCCCNC(=O)c2ccc3c(c2)OCO3)cc1
2,119 to 121 °C,Nc1ccc(-c2nc3cc(OCc4ccccc4)ccc3s2)c(Cl)c1
3,180 to 185 °C,COC(=O)CCc1ccc(OCc2cccc(-c3cccc(C(=O)O)c3)c2)cc1
4,125 to 130 °C,CCOc1ccc2c(c1)C(c1ccccc1)C(=O)N2 (centres undefined)
5,280 to 283 °C,NC(=O)Cn1c(-c2ccc(Cl)cc2)nc2ncccc21
6,110 to 112 °C,CN(C(=O)CN(O)C(N)=O)c1cccc(Oc2ccccc2)c1
7,171 °C,COc1ccc(Oc2ccc3ccc(NC(=O)c4ccccc4)nc3n2)cc1
8,68 °C,COc1ccc(S(=O)(=O)C(CCCCOc2ccccc2)(Cc2cccnc2)C(=O)NO)cc1 (centres undefined)
9,209 to 211 °C,COCCc1sc2ncnc(N)c2c1-c1ccc(NC(=O)Nc2cc(C(F)(F)F)ccc2F)cc1
10,180 to 183 °C,CCOc1cccc(OCC)c1NC(=O)Cc1c(-c2ccccc2OC)c2cc(Cl)ccc2n1C
11,84 to 86 °C,Cc1c(-c2ccccc2)oc2c(SCCCCl)cccc2c1=O
12,82 to 84 °C,[N-]=[N+]=N[Si](c1ccccc1)(c1ccccc1)c1ccccc1
13,94 to 96 °C,O=S(=O)(Cc1ccccc1)c1nnnn1Cc1ccccc1
14,116 °C,CC1CCCN(C(=O)c2nc(-c3ccccc3)nc3ccccc23)C1 (centres undefined)
15,170 to 171 °C,CC(C)S(=O)(=O)NC[C@@H](C)c1ccc(-c2ccc3c(c2)CC(=O)N3)cc1
16,73 °C,CCOC(=O)C(CC)Oc1ccc2c(-c3ccc(Cl)cc3)noc2c1 (centres undefined)
17,176 °C,O=[N+]([O-])c1cc(F)c(NS(=O)(=O)c2ccccc2)cc1F
18,129 to 130 °C,CC(C)c1nc(CCOCc2ccccc2)n(CCO)c1Sc1cc(Cl)cc(Cl)c1
